Results: patent US7547690B2, “Compounds for the treatment of Hepatitis C” (Bristol-Myers Squibb Company, priority 2007, dated 2009)
pEC50, pIC50: −log10 of the molar value. Like-named read-outs stand apart in the source and are kept apart here.

What was measured:
[1] = system: HCV replicon cells; test: HCV replicon FRET / luciferase assay; assay type: cell-based; conditions: 50% reduction in FRET or luciferase activity in HCV replicon cells, read-out: EC50
Experimental: FRET Assay Preparation. The HCV FRET screening assay was performed in 96-well cell culture plates. The FRET peptide (Anaspec, Inc.) (Taliani et al., Anal. Biochem. 1996, 240, 60-67) contains a fluorescence donor, EDANS, near one end of the peptide and an acceptor, DABCYL, near the other end. The fluorescence of the peptide is quenched by […] resonance energy transfer (RET) between the donor and the acceptor, but as the NS3 protease cleaves the peptide the products are released from RET quenching and the fluorescence of the donor becomes apparent. The assay reagent was made as follows: 5× cell Luciferase cell culture lysis reagent from Promega (#E153A) diluted to 1× with dH2O, NaCl added to 150 mM final, the FRET peptide diluted to 20 μM final from a 2 mM stock.
To prepare plates, HCV replicon cells, with or without a Renilla luciferase reporter gene, were trypsinized and plated in a 96-well plate with titrated test compounds added in columns 3 through 12; columns 1 and 2 contained a control compound (HCV control inhibitor), and the bottom row contained cells with DMSO only. The plates were then placed in a CO2 incubator at 37° C.
Assays. Subsequent to addition of the test compounds described above (FRET Assay Preparation), at various times the plate was removed and Alamar blue solution (Trek Diagnostics, #00-100) was added to measure cellular toxicity. After reading in a Cytoflour 4000 instrument (PE Biosystems), plates were rinsed with PBS and then used for FRET assay by the addition of 30 ul of the FRET peptide assay reagent described above (FRET Assay Preparation) per well. The plate was then placed into the Cytoflour 4000 instrument which had been set to 340 excite/490 emission, automatic mode for up to 20 cycles and the plate read in a kinetic mode. Typically, the signal to noise using an endpoint analysis after the reads was at least three-fold. Alternatively, after Alamar blue reading, plates were rinsed with PBS, then used for luciferase assay using the Promega Dual-Glo Luciferase Assay System or the Promega EnduRen Live Cell Substrate assay.
Compound analysis was performed by quantification of the relative HCV replicon inhibition and the relative cytotoxicity values. To calculate cytoxicity values, the average Alamar Blue fluorescence signals from the control wells were set as 100% non-toxic. The individual signals in each of the compound test wells were then divided by the average control signal and multiplied by 100% to determine […]. To calculate the HCV replicon inhibition values, an average background value was obtained from the two wells containing the highest amount of HCV control inhibitor at the end of the assay period. These numbers were similar to those obtained from naïve Huh-7 cells. The background numbers were then subtracted from the average signal obtained from the control wells and this number was used as 100% activity. The individual signals in each of the compound test wells were then divided by the averaged control values after background subtraction and multiplied by 100% to determine percent activity. EC50 values were calculated as the concentration which caused a 50% reduction in FRET or luciferase activity. The two numbers generated for the compound plate, percent cytoxicity and percent activity, were used to determine compounds of interest for further analysis.

[2] = biological target: T1, HCV NS5B (Hepatitis C virus genotype 1b, UniProt Q9WMX2); test: HCV NS5B RdRp enzyme assay (standard / modified); assay type: biochemical; conditions: HCV RdRp genotype 1b; standard or modified assay not specified; read-out: IC50
T1 construct: The protein was expressed with an 18 amino acid C-terminal truncation to enhance the solubility; made in house; host or cells: E. coli BL21(DE3)
T1 sequence (Q9WMX2 2420-2992): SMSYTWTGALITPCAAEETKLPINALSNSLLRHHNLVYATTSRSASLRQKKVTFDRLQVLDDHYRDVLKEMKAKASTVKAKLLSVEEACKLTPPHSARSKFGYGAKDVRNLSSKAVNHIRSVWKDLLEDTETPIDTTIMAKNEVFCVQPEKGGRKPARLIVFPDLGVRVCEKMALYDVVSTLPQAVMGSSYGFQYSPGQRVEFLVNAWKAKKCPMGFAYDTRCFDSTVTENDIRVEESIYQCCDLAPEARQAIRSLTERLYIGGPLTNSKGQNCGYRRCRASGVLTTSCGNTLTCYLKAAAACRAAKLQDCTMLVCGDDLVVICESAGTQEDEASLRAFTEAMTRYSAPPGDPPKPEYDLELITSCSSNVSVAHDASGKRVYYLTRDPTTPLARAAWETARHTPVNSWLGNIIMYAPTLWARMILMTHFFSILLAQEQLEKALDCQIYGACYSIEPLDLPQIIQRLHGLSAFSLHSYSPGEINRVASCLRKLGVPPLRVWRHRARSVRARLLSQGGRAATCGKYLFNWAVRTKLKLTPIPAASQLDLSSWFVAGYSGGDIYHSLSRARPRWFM
Experimental: HCV NS5B RdRp cloning, expression, and purification. The cDNA encoding the NS5B protein of HCV, genotype 1b, was cloned into the pET21a expression vector. The protein was expressed with an 18 amino acid C-terminal truncation to enhance the solubility. The E. coli competent cell line BL21(DE3) was used for expression of the protein. Cultures were grown at 37° C. for ˜4 hours until the cultures reached an optical density of 2.0 at 600 nm. The cultures were cooled to 20° C. and induced with 1 mM IPTG. Fresh ampicillin was added to a final concentration of 50 μg/ml and the cells were grown overnight at 20° C.
Cell pellets (3 L) were lysed for purification to yield 15-24 mgs of purified NS5B. The lysis buffer consisted of 20 mM Tris-HCl, pH 7.4, 500 mM NaCl, 0.5% triton X-100, 1 mM DTT, 1 mM EDTA, 20% glycerol, 0.5 mg/ml lysozyme, 10 mM MgCl2, 15 ug/ml deoxyribonuclease I, and Complete TM protease inhibitor tablets (Roche). After addition of the lysis buffer, frozen cell pellets were resuspended using a tissue homogenizer. To reduce the viscosity of the sample, aliquots of the lysate were sonicated on ice using a microtip attached to a Branson sonicator. The sonicated lysate was centrifuged at 100,000×g for 1 hr at 4° C. and filtered through a 0.2 μm filter unit (Corning).
The protein was purified using two sequential chromatography steps: Heparin sepharose CL-6B and polyU sepharose 4B (Pharmacia). The chromatography buffers were identical to the lysis buffer but contained no lysozyme, deoxyribonuclease I, MgCl2 or protease inhibitor and the NaCl concentration of the buffer was adjusted according to the requirements for charging the protein onto the column. Each column was eluted with a NaCl gradient which varied in length from 5-50 column volumes depending on the column type. After the final chromatography step, the resulting purity of the enzyme is >90% based on SDS-PAGE analysis. The enzyme was aliquoted and stored at −80° C.
Standard HCV NS5B RdRp enzyme assay. HCV RdRp genotype 1b assays were run in a final volume of 60 μl in 96 well plates (Corning 3600). The assay buffer is composed of 20 mM Hepes, pH 7.5, 2.5 mM KCl, 2.5 mM MgCl2, 1 mM DTT, 1.6 U RNAse inhibitor (Promega N2515), 0.01 mg/ml BSA (Sigma B6917), and 2% glycerol. All compounds were serially diluted (3-fold) in DMSO and diluted further in water such that the final concentration of DMSO in the assay was 2%. HCV RdRp genotype 1b enzyme was used at a final concentration of 28 nM. A polyA template was used at 6 nM, and a biotinylated oligo-dT12 primer was used at 180 nM final concentration. Template was obtained commercially (Amersham 27-4110). Biotinylated primer was prepared by Sigma Genosys. 3H-UTP was used at 0.6 μCi (0.29 μM total UTP). Reactions were initiated by the addition of enzyme, incubated at 30 ° C. for 60 min, and stopped by adding 25 μl of 50 mM EDTA containing SPA beads (4 μg/μl, Amersham RPNQ 0007). Plates were read on a Packard Top Count NXT after >1 hr incubation at room temperature.
Modified HCV NS5B RdRp enzyme assay. A modified enzyme assay was performed essentially as described for the standard enzyme assay except for the following: The biotinylated oligo dT12 primer was precaptured on streptavidin-coated SPA beads by mixing primer and beads in assay buffer and incubating at room temperature for one hour. Unbound primer was removed after centrifugation. The primer-bound beads were resuspended in 20 mM Hepes buffer, pH 7.5 and used in the assay at final concentrations of 20 nM primer and 0.67 μg/μl beads. Order of addition in the assay: enzyme (1.75 nM) was added to diluted compound followed by the addition of a mixture of template (0.36 nM), 3H-UTP (0.6 μCi, 0.29 μM), and primer-bound beads, to initiate the reaction; concentrations given are final. Reactions were allowed to proceed for 4 hours at 30° C.
IC50 values for compounds were determined using seven different [I]. […]

Row | Compound | pEC50 ([1]; Hepatitis C virus) | pIC50 [2] | pEC50 [1]
1 | CCN(CC)S(=O)(=O)NC(=O)c1ccc2c(C3CCCCC3)c3n(c2c1)CC1(C(=O)N2C4CC2CN(C)C4)CC1c1cc(OC)ccc1-3 (centres unmarked) | 6.30 to 8.62 | 6.30 to 8.62 | 
2 | CCN1C[C@H]2C[C@@H]1CN2C(=O)C12CC1c1cc(OC)ccc1-c1c(C3CCCCC3)c3ccc(C(=O)NS(C)(=O)=O)cc3n1C2 (some centres unmarked) | 6.30 to 8.62 | 6.30 to 8.62 | 
3 | COc1ccc2c(c1)C1CC1(C(=O)N1C[C@H]3C[C@@H](C1)c1cccc(=O)n1C3)Cn1c-2c(C2CCCCC2)c2ccc(C(=O)NS(=O)(=O)N(C)C)cc21 (some centres unmarked) | 6.30 to 8.62 | > 7.15 | 
4 | COc1ccc2c(c1)C1CC1(C(=O)N1C3CC1CN(C)C3)Cn1c-2c(C2CCCCC2)c2ccc(C(=O)NS(=O)(=O)C3CCC3)cc21 (centres unmarked) | 6.30 to 8.62 | 6.30 to 8.62 | 
5 | COc1ccc2c(c1)C1CC1(C(=O)N1CCN3CCC1CC3)Cn1c-2c(C2CCCCC2)c2ccc(C(=O)NS(C)(=O)=O)cc21 (centres unmarked) | 6.30 to 8.62 | 6.30 to 8.62 | 
6 | COc1ccc2c(c1)C1CC1(S(=O)(=O)N1C3CC1CN(C)C3)Cn1c-2c(C2CCCCC2)c2ccc(C(=O)NS(=O)(=O)N3CCOCC3)cc21 (centres unmarked) | 6.30 to 8.62 | 6.30 to 8.62 | 
7 | COc1ccc2c(c1)[C@@H]1C[C@]1(C(=O)N1CC3CC(C1)N3C)Cn1c-2c(C2CCCCC2)c2ccc(C(=O)NS(=O)(=O)N(C)C)cc21 | 6.30 to 8.62 | 6.30 to 8.62 | 
8 | COc1ccc2c(c1)C1CC1(C(=O)N1CCN3CCC1CC3)Cn1c-2c(C2CCCCC2)c2ccc(C(=O)NS(=O)(=O)N(C)C)cc21 (centres unmarked) | 6.30 to 8.62 | 6.30 to 8.62 | 
9 | COc1ccc2c(c1)[C@@H]1C[C@]1(C(=O)N1C[C@@H]3C[C@H]1CN3C(=O)OC(C)(C)C)Cn1c-2c(C2CCCCC2)c2ccc(C(=O)NS(=O)(=O)N(C)C)cc21 | 6.30 to 8.62 | 6.30 to 8.62 | 
10 | COc1ccc2c(c1)C1CC1(C(=O)N1[C@@H]3C[C@H]1CN(C(C)=O)C3)Cn1c-2c(C2CCCCC2)c2ccc(C(=O)NS(=O)(=O)N(C)C)cc21 (some centres unmarked) | 6.30 to 8.62 | 6.30 to 8.62 | 
11 | CCCS(=O)(=O)NC(=O)c1ccc2c(C3CCCCC3)c3n(c2c1)CC1(C(=O)N2C4CCCC2CN(C)C4)CC1c1cc(OC)ccc1-3 (centres unmarked) | 6.30 to 8.62 | 6.30 to 8.62 | 
12 | COc1ccc2c(c1)C1CC1(C(=O)N1C3CC1CN(C)C3)Cn1c-2c(C2CCCCC2)c2ccc(C(=O)NS(=O)(=O)CCCF)cc21 (centres unmarked) | 6.30 to 8.62 | 6.30 to 8.62 | 
13 | COc1ccc2c(c1)C1CC1(C(=O)N1[C@@H]3C[C@H]1CN(C)C3)Cn1c-2c(C2CCCCC2)c2ccc(C(=O)NS(N)(=O)=O)cc21 (some centres unmarked) | 6.30 to 8.62 | 6.30 to 8.62 | 
14 | COc1ccc2c(c1)C1CC1(C(=O)N1C3COCC1CN(C(C)=O)C3)Cn1c-2c(C2CCCCC2)c2ccc(C(=O)NS(=O)(=O)N(C)C)cc21 (centres unmarked) | 6.30 to 8.62 | 6.30 to 8.62 | 
15 | COc1ccc2c(c1)C1CC1(C(=O)N1CC3CC(C1)c1cccc(=O)n1C3)Cn1c-2c(C2CCCCC2)c2ccc(C(=O)NS(=O)(=O)N(C)C)cc21 (centres unmarked) | 6.30 to 8.62 | 6.30 to 8.62 | 
16 | COc1ccc2c(c1)C1CC1(C(=O)N1C3CNCC1CN(C)C3)Cn1c-2c(C2CCCCC2)c2ccc(C(=O)NS(=O)(=O)N(C)C)cc21 (centres unmarked) |  | 6.30 to 8.62 | 
17 | COc1ccc2c(c1)C1CC1(C(=O)N1C[C@H]3C[C@@H]1CN3CC(C)C)Cn1c-2c(C2CCCCC2)c2ccc(C(=O)NS(=O)(=O)N(C)C)cc21 (some centres unmarked) | 6.30 to 8.62 | 6.30 to 8.62 | 
18 | COc1ccc2c(c1)C1CC1(C(=O)N1CC3CCC1CN3)Cn1c-2c(C2CCCCC2)c2ccc(C(=O)NS(=O)(=O)CCC(F)(F)F)cc21 (centres unmarked) | < 6.00 | 6.30 to 8.62 | 
19 | COc1ccc2c(c1)[C@@H]1C[C@]1(C(=O)N1CC3CCC1CN3C)Cn1c-2c(C2CCCCC2)c2ccc(C(=O)NS(=O)(=O)C(C)C)cc21 (some centres unmarked) [drawing 128] | 6.30 to 8.62 |  | 
20 | COc1ccc2c(c1)C1CC1(NC(=O)N1CC3CN(Cc4ccccc4)CC(C1)N3Cc1ccccc1)Cn1c-2c(C2CCCCC2)c2ccc(C(=O)NS(=O)(=O)N(C)C)cc21 (centres unmarked) |  | 5.30 to 6.30 | 
21 | CCC(C)S(=O)(=O)NC(=O)c1ccc2c(C3CCCCC3)c3n(c2c1)CC1(C(=O)N2C4COCC2CN(C)C4)CC1c1cc(OC)ccc1-3 (centres unmarked) |  | 6.30 to 8.62 | 
22 | COc1ccc2c(c1)C1CC1(C(=O)N1C[C@H]3C[C@@H]1CN3C(=O)OC(C)(C)C)Cn1c-2c(C2CCCCC2)c2ccc(C(=O)NS(=O)(=O)N(C)C)cc21 (some centres unmarked) |  | 6.30 to 8.62 | 
23 | COc1ccc2c(c1)[C@@H]1C[C@]1(C(=O)N1CC3CCC1CN3C)Cn1c-2c(C2CCCCC2)c2ccc(C(=O)NS(=O)(=O)C(C)C)cc21 (some centres unmarked) [drawing 129] |  |  | 6.30 to 8.62
24 | COc1ccc2c(c1)C1CC1(C(=O)N1C[C@@H]3C[C@H]1CN3)Cn1c-2c(C2CCCCC2)c2ccc(C(=O)NS(=O)(=O)C3CC3)cc21 (some centres unmarked) |  | 6.30 to 8.62 | 
